Data: PubChem BioAssay (NCI)
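In this assay, cells in 96-well plates receive the compound at five concentrations for 48 hours. Endpoints are linearly interpolated between the surrounding concentrations. At the GI50, growth is halved. At the TGI there is no net growth.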

Columns and labels:
Assay in all cases: growth of human tumour cells (NCI), 48 h
HS 578T breast = test system: HS 578T breast
SF-268 CNS = test system: SF-268 CNS
SR leukemia = test system: SR leukemia
T-47D breast = test system: T-47D breast
NCI-H23 lung = test system: NCI-H23 lung
CCRF-CEM leukemia = test system: CCRF-CEM leukemia
HCT-116 colon = test system: HCT-116 colon
A498 renal = test system: A498 renal
RPMI-8226 leukemia = test system: RPMI-8226 leukemia
SW-620 colon = test system: SW-620 colon

SMILES | TGI (HS 578T breast) [µM] | TGI (SF-268 CNS) [µM] | TGI (SR leukemia) [µM] | TGI (T-47D breast) [µM] | TGI (NCI-H23 lung) [µM] | TGI (CCRF-CEM leukemia) [µM] | TGI (HCT-116 colon) [µM] | TGI (A498 renal) [µM] | TGI (RPMI-8226 leukemia) [µM] | TGI (SW-620 colon) [µM] | GI50 (HS 578T breast) [µM] | GI50 (SF-268 CNS) [µM] | GI50 (SR leukemia) [µM] | GI50 (T-47D breast) [µM] | GI50 (NCI-H23 lung) [µM] | GI50 (CCRF-CEM leukemia) [µM] | GI50 (HCT-116 colon) [µM] | GI50 (A498 renal) [µM] | GI50 (RPMI-8226 leukemia) [µM] | GI50 (SW-620 colon) [µM]
C=C1C(=O)OC2CC(C)C3CC(O)OC(OCC)C3(C)CC12 (stereo not given) | 72.8 | 34 | > 63.1 | 33.1 | 30.9 | > 100 | 26 | > 69.1 | 51 | 19 |  |  |  |  |  |  |  |  |  | 
Cc1cc(N=C2C=C(Br)C(=O)C(Br)=C2)cc(CN(CC(=O)O)CC(=O)O)c1O | > 100 | > 100 | > 100 | > 100 | > 100 | > 100 | > 100 | > 100 | > 100 | > 100 |  |  |  |  |  |  |  |  |  | 
COc1cc2c(cc1OC)C(=O)/C(=C/c1cc(-c3ccc4c(c3)OCO4)n[nH]1)C2 | 8.08 | 3.37 | 4.11 | 2.72 | 3.91 | 3.61 | 2.55 | 2.83 | 0.623 | 3.47 | 2.61 | 1.63 | 0.627 | 1.31 | 1.87 | 1.14 | 1.03 | 1.33 | 0.233 | 1.35
Cc1nc(Nc2ccccn2)sc1C(=O)/C=C/c1ccc(Cl)cc1 | > 100 | > 100 | > 100 | > 100 | > 100 | > 100 | > 51.8 | 0.626 | > 100 | > 100 | 0.398 | 0.974 | 0.518 | 8.68 | 0.567 | 0.445 | 0.381 | 0.143 | 0.523 | 0.445
O=C([O][Sn]([O]C(=O)c1ccccn1)([c]1ccccc1)[c]1ccccc1)c1ccccn1 | 8.88 | 9.09 | 11.3 | 3.33 | 12.8 | 2.95 | 3.11 | 6.56 | 6.13 | 2.34 | 2.32 | 2.76 | 1.22 | 1.56 | 3.08 | 0.565 | 1.71 | 1.87 | 1.86 | 1.13
Cc1c2c(c(C)c3c4c(oc13)CCCC4)C=NCC2 | 53 | 41.2 | 23.4 | > 100 | 31.9 | 29.4 | 35.9 | 31.9 | 43 | 59.3 |  |  |  |  |  |  |  |  |  | 
O=C(Oc1ccc(CO[N+](=O)[O-])cc1)c1ccccc1 | 0.422 | 0.317 | 0.542 | 0.323 | 1.43 | 0.173 | 0.241 | 2.26 | 0.33 | 0.251 | 0.0911 | 0.167 | 0.115 | 0.137 | 0.351 | 0.0324 | 0.101 | 1.07 | 0.0912 | 0.103
CCN(c1cc(-c2ccc(CN3CCOCC3)cc2)cc(C(=O)NCc2c(C)cc(C)[nH]c2=O)c1C)C1CCOCC1 | > 71.2 | > 93.6 | 58.2 | 53.4 | > 100 | > 85.4 | 40.3 | 37.2 | > 59.8 | 52.4 | 22.2 | 26.2 | 21.7 | 18.9 | 59.4 | 30.6 | 18.5 | 9.79 | 20 | 20.7
